{
  "source": "patent US20260242320A1",
  "about": "“USE OF CANNABIDIOL DERIVATIVE IN PREPARATION OF MEDICAMENT” (priority 2023, published 2026)",
  "key": {"[1]": {"assay": "Respiratory rate determination", "type": "in vivo, mice", "conditions": "CIAC001 20 mg/kg i.p.; THC 10 mg/kg i.p.", "protocol": "Mice were intraperitoneally injected with 20 mg/kg CIAC001 or 10 mg/kg THC once daily. After 1 h, the mice were anesthetized with isoflurane by a small animal anesthesia machine (R500IE, RWD Life Science Co) on day 2 and day 5. The respiratory rate of mice was recorded three times within 20 s. The weights of mice were recorded every day."}, "[2]": {"assay": "Y-maze test of short-term memory", "type": "in vivo, mice", "conditions": "CIAC001 20 mg/kg i.p.; THC 10 mg/kg i.p.", "protocol": "Mice were tested for short-term memory using a Y-maze task. Briefly, mice were placed into the Y-maze for 10 min once daily to habituate the apparatus for two consecutive days. After daily habituation, the mice were then treated with CIAC001 (20 mg/kg) or THC (10 mg/kg). On the 3rd day, mice were pretreated with CIAC001 or THC 45 min before the Y-maze test. Next, the “new arm” was blocked, and mice had 5 min to freely explore two arms (the “start arm” and the “old arm”, FIG. 8F). Mice were then removed from the Y-maze and placed into the cages for 2 min. During the test phase, mice were allowed to freely explore all three arms for 2 min, and the time spent in each arm was recorded and analyzed using the Noldus analyzing software. To eliminate olfactory interference, the Y-maze was wiped off with 70% alcohol after each test."}},
  "data": [
    {"smiles": "CCCCCc1cc(O)c2c(c1)OC(C)(C)[C@@H]1CCC(C)=C[C@@H]21", "note": "[THC, reference compound]", "values": [
      {"measurement": "respiratory rate", "setting": "[1]", "value": "Respiratory depression was found"},
      {"measurement": "time spent on the new arm (Y maze)", "setting": "[2]", "value": "spent significantly less time on the new arm"}
    ]}
  ]
}
